Laboratory results from patent publication US10167262B2, “Herbicidal substituted 3-arylpyrazoles” (FMC CORPORATION, priority 2014, dated 2019).

Columns and labels:
Format in all cases: in vivo
[1] = tested on: barnyardgrass (Echinochloa crus-galli); assay: Test B flooded paddy test, plant response rating 0-100; conditions: Flood, 250 g ai/ha; scale 0 to 100 (0 no effect, 100 complete control); 13 to 15 days
Outline: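 Test compounds are applied straight into paddy water held 3 cm above the soil surface, with that flood maintained for the whole test. After 13 to 15 days in the greenhouse, each species is scored visually relative to controls.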

[2] = tested on: Brazilian crabgrass (Digitaria horizontalis); assay: Test E pre-/postemergence greenhouse test, plant response rating 0-100; conditions: Postemergence, scale 0 to 100
Outline: (§1)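 Sow seeds in silt loam and treat preemergence; at the same time, spray postemergence on 1- to 4-leaf plants in peat/vermiculite mix. Use a non-phytotoxic solvent plus surfactant as carrier. Hold 14–21 days in greenhouse, then score visually 0–100 against controls.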

[3] = tested on: Italian ryegrass (Lolium multiflorum); assay: as above; conditions: Postemergence, scale 0 to 100
Outline: as §1

[4] = tested on: arrowleaf sida (Sida rhombifolia); assay: as above; conditions: Postemergence
Outline: as §1

[5] = tested on: barnyardgrass (Echinochloa crus-galli); assay: as above; conditions: Postemergence, scale 0 to 100
Outline: as §1

corn (Zea mays) = assay: as above; conditions: Postemergence, scale 0 to 100
Outline: as §1

[6] = tested on: dayflower (Virginia (VA) dayflower, Commelina virginica); assay: as above; conditions: Postemergence, scale 0 to 100
Outline: as §1

[7] = tested on: fall panicum (Panicum dichotomiflorum); assay: as above; conditions: Postemergence, scale 0 to 100
Outline: as §1

[8] = tested on: hairy beggarticks (Bidens pilosa); assay: as above; conditions: Postemergence, scale 0 to 100
Outline: as §1

[9] = tested on: palmer pigweed (Amaranthus palmeri); assay: as above; conditions: Postemergence, scale 0 to 100
Outline: as §1

[10] = tested on: sandbur (southern sandbur, Cenchrus echinatus); assay: as above; conditions: Postemergence, scale 0 to 100
Outline: as §1

[11] = tested on: wild poinsettia (Euphorbia heterophylla); assay: as above; conditions: Postemergence, scale 0 to 100
Outline: as §1

Fc1cccc(NN=C(c2ccccc2)c2c[nH]nc2-c2cc(Cl)cc(Cl)c2)c1 [Compound 58]
60: Plant response rating, Arrowleaf Sida ([4]; 125 g ai/ha, scale 0 to 100)
80: Plant response rating, Arrowleaf Sida ([4]; 500 g ai/ha, scale 0 to 100 (0 no effect, 100 complete control)) | Plant response rating, Beggarticks ([8]; 62 g ai/ha) | Plant response rating, Beggarticks ([8]; 125 g ai/ha) | Plant response rating, Pigweed, Palmer ([9]; 31 g ai/ha) | Plant response rating, Pigweed, Palmer ([9]; 62 g ai/ha)
100: Plant response rating, Beggarticks ([8]; 500 g ai/ha) | Plant response rating, Pigweed, Palmer ([9]; 500 g ai/ha)
10: Plant response rating, Crabgrass, Brazil ([2]; 500 g ai/ha)
0: Plant response rating, Barnyardgrass [1] | Plant response rating, Crabgrass, Brazil ([2]; 31 g ai/ha) | Plant response rating, Crabgrass, Brazil ([2]; 62 g ai/ha) | Plant response rating, Crabgrass, Brazil ([2]; 125 g ai/ha) | Plant response rating, Crabgrass, Brazil ([2]; 250 g ai/ha) | Plant response rating, Ryegrass, Italian ([3]; 31 g ai/ha) | Plant response rating, Ryegrass, Italian ([3]; 62 g ai/ha) | Plant response rating, Ryegrass, Italian ([3]; 125 g ai/ha) | Plant response rating, Ryegrass, Italian ([3]; 250 g ai/ha) | Plant response rating, Ryegrass, Italian ([3]; 500 g ai/ha) | Plant response rating, Barnyardgrass ([5]; 31 g ai/ha) | Plant response rating, Barnyardgrass ([5]; 62 g ai/ha) | Plant response rating, Barnyardgrass ([5]; 125 g ai/ha) | Plant response rating, Barnyardgrass ([5]; 250 g ai/ha) | Plant response rating, Barnyardgrass ([5]; 500 g ai/ha) | Plant response rating, Corn (corn (Zea mays); 31 g ai/ha) | Plant response rating, Corn (corn (Zea mays); 62 g ai/ha) | Plant response rating, Corn (corn (Zea mays); 125 g ai/ha) | Plant response rating, Corn (corn (Zea mays); 250 g ai/ha) | Plant response rating, Corn (corn (Zea mays); 500 g ai/ha) | Plant response rating, Dayflower, VA ([6]; 31 g ai/ha) | Plant response rating, Dayflower, VA ([6]; 62 g ai/ha) | Plant response rating, Dayflower, VA ([6]; 125 g ai/ha) | Plant response rating, Dayflower, VA ([6]; 250 g ai/ha) | Plant response rating, Dayflower, VA ([6]; 500 g ai/ha) | Plant response rating, Panicum, Fall ([7]; 31 g ai/ha) | Plant response rating, Panicum, Fall ([7]; 250 g ai/ha) | Plant response rating, Sandbur ([10]; 31 g ai/ha) | Plant response rating, Sandbur ([10]; 62 g ai/ha) | Plant response rating, Sandbur ([10]; 125 g ai/ha) | Plant response rating, Sandbur ([10]; 250 g ai/ha) | Plant response rating, Sandbur ([10]; 500 g ai/ha) | Plant response rating, Poinsettia, Wild ([11]; 31 g ai/ha) | Plant response rating, Poinsettia, Wild ([11]; 62 g ai/ha) | Plant response rating, Poinsettia, Wild ([11]; 125 g ai/ha) | Plant response rating, Poinsettia, Wild ([11]; 250 g ai/ha) | Plant response rating, Poinsettia, Wild ([11]; 500 g ai/ha)
75: Plant response rating, Arrowleaf Sida ([4]; 250 g ai/ha, scale 0 to 100)
70: Plant response rating, Beggarticks ([8]; 31 g ai/ha)
95: Plant response rating, Beggarticks ([8]; 250 g ai/ha) | Plant response rating, Pigweed, Palmer ([9]; 125 g ai/ha) | Plant response rating, Pigweed, Palmer ([9]; 250 g ai/ha)
50: Plant response rating, Arrowleaf Sida ([4]; 31 g ai/ha, scale 0 to 100) | Plant response rating, Arrowleaf Sida ([4]; 62 g ai/ha, scale 0 to 100)
